As a reminder, the EC50 is the concentration at which the effect is half-maximal. High values mean lower potency in that assay, low ones higher potency in that assay. What is called IC50 is the concentration at which inhibition is half-maximal.

One experiment concerns LNCaP cells. Put plainly: LNCaP proliferation assay (CellTiter-Glo). Format: cell-based. The following applies: Homo sapiens, Table 1, cell viability after 168 h. On the procedure: LNCaP cells from ATCC, were seeded in 96 well plate format (typically 2500 cells/well) in their growth media (RPMI, Life Technologies #52400-025+10% Fetal Calf Serum, Life Technologies #10500-064) and treated after 24 h with increasing concentration of compound from 0 to 30 μM. Cell viability was assessed after 168 h by CellTiter-Glo® as recommended by the manufacturer's instructions (Promega). Analysis and EC50 values were derived using GraphPadPrism.
On the technique in general: ATP-based viability assays read luminescence as a measure of living cells.
As for `CC1(C(=O)N2CCC(O)(Cn3cnc4c(cc(Cl)n4-c4ccc(Cl)cc4)c3=O)CC2)CC1` [Example 203, 6-Chloro-7-(4-chlorophenyl)-3-((4-hydroxy-1-(1-methylcyclopropanecarbonyl)piperidin-4-yl)methyl)-3H-pyrrolo[2,3-d]pyrimidin-4(7H)-one], the EC50 is 0.022 µM.

The target of the next experiment is USP7 (Homo sapiens (Human), UniProt Q93009). Kind of experiment: USP7 fluorescence polarisation (FP) biochemical assay, ubiquitin-Lys-TAMRA substrate.
Sequence of USP7 (Q93009 whole entry): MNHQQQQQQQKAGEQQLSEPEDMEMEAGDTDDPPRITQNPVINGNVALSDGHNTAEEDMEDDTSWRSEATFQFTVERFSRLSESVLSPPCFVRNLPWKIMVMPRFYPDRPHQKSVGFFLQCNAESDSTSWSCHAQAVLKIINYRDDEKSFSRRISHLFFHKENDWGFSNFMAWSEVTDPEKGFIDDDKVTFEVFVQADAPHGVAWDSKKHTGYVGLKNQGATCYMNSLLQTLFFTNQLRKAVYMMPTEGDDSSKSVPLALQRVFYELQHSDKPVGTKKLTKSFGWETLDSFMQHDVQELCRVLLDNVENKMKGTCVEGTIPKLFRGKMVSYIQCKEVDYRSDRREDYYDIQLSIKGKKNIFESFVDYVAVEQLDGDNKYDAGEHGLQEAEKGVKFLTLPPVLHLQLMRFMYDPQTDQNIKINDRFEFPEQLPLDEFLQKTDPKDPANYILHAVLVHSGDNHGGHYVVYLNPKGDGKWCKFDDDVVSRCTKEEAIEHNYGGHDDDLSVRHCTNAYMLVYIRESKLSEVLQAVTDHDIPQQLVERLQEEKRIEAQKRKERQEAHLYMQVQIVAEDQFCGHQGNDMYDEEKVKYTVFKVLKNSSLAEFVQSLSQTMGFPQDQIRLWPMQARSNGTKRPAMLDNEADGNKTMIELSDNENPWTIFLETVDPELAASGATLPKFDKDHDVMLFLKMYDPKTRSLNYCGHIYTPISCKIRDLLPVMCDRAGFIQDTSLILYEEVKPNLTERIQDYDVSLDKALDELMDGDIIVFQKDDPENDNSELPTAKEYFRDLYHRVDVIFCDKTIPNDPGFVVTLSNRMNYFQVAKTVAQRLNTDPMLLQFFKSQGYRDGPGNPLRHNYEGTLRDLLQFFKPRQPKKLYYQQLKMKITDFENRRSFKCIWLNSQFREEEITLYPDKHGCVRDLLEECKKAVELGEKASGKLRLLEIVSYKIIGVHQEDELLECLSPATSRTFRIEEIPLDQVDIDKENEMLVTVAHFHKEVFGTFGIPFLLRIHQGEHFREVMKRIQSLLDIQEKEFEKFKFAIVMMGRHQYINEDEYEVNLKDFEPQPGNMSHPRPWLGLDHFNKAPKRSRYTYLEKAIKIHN
Conditions: not given
The essentials:
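Full-length His6-USP7 (2.5 nM) incubated ± inhibitor (8-point dilutions, 200 to 0.1 μM before addition) in 50 mM HEPES pH 7.2, 150 mM NaCl, 0.5 mM EDTA, 5 mM DTT, 0.05% BSA, 0.05% CHAPS. Ubiquitin-Lys-TAMRA cleavage followed by FP (ex 530/em 575 nm) every 15 min for 1.5 h; normalised to no-compound control.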
A general note: Polarisation of emitted light reports the rotation of a fluorescent probe.
`C[C@H](CC(=O)N1CCC(O)(Cn2cnc(OCCN(C)C)cc2=O)CC1)c1ccccc1` [Example 10, (R)-6-(2-(Dimethylamino)ethoxy)-3-((4-hydroxy-1-(3-phenylbutanoyl)piperidin-4-yl)methyl)pyrimidin-4(3H)-one]: the half-inhibitory concentration (IC50) is 1 to 200 µM.

The same experiment, now with this note: Table 1, R9a = H versus R9a = Cl; read-out: USP7 IC50.
`CC1(C(=O)N2CCC(O)(Cn3cnc4c(cc(Cl)n4-c4ccc(Cl)cc4)c3=O)CC2)CC1` [Example 203, 6-Chloro-7-(4-chlorophenyl)-3-((4-hydroxy-1-(1-methylcyclopropanecarbonyl)piperidin-4-yl)methyl)-3H-pyrrolo[2,3-d]pyrimidin-4(7H)-one]: the IC50 came to 0.22 µM.

The experiment is the same for the next values; noted with them: Table 3, effect of the R2 substituent; read-out: USP7 IC50.
`Cn1nc2c(=O)n(CC3(O)CCN(C(=O)CCc4ccccc4)CC3)cnc2c1C(F)(F)F` [Example 39, 6-((4-Hydroxy-1-(3-phenylpropanoyl)piperidin-4-yl)methyl)-2-methyl-3-(trifluoromethyl)-2H-pyrazolo[4,3-d]pyrimidin-7(6H)-one]: the IC50 came to 14 µM.

Staying with this experiment, now noted: Table 4, biochemical assay; average of at least duplicate experiments; read-out: USP7 IC50.
In the case of `CC1(C(=O)N2CCC(O)(Cn3cnc4c(cc(Cl)n4-c4ccc(Cl)cc4)c3=O)CC2)CC1` [Example 203, 6-Chloro-7-(4-chlorophenyl)-3-((4-hydroxy-1-(1-methylcyclopropanecarbonyl)piperidin-4-yl)methyl)-3H-pyrrolo[2,3-d]pyrimidin-4(7H)-one], the IC50 was less than 0.25 µM.
Consider `CNc1nc2ncn(CC3(O)CCN(C(=O)CCc4ccccc4)CC3)c(=O)c2s1` [Example 93, 6-((4-Hydroxy-1-(3-phenylpropanoyl)piperidin-4-yl)methyl)-2-(methylamino)thiazolo[4,5-d]pyrimidin-7(6H)-one], for which the IC50 was 1 to 200 µM.
Same read-out and setting: then `CC1(C(=O)N2CCC(O)(Cn3cnc4[nH]c(Cl)cc4c3=O)CC2)CC1` [Example 199, 6-Chloro-3-((4-hydroxy-1-(1-methylcyclopropanecarbonyl)piperidin-4-yl)methyl)-3H-pyrrolo[2,3d]pyrimidin-4(7H)-one], with 1 to 200 µM; and `C[C@H](CC(=O)N1CCC(O)(Cc2cnc3ccccn3c2=O)CC1)c1ccccc1` [Example 18, (R)-3-((4-Hydroxy-1-(3-phenylbutanoyl)piperidin-4-yl)methyl)-4H-pyrido[1,2-a]pyrimidin-4-one], with 1 to 200 µM; and `C[C@H](CC(=O)N1CCC(O)(Cn2cnc(N(CCN3CCCC3)c3ccccc3)cc2=O)CC1)c1ccccc1` [Example 121, (R)-3-((4-Hydroxy-1-(3-phenylbutanoyl)piperidin-4-yl)methyl)-6-(phenyl(2-(pyrrolidin-1-yl)ethyl)amino)pyrimidin-4(3H)-one, Formic Acid], with 1 to 200 µM.
In the case of `C[C@H](CC(=O)N1CCC(O)(Cn2cnc(N3CCC(F)(F)CC3)cc2=O)CC1)c1ccccc1` [Example 160, (R)-6-(4,4-difluoropiperidin-1-yl)-3-((4-hydroxy-1-(3-phenylbutanoyl)piperidin-4-yl)methyl)pyrimidin-4(3H)-one], the half-inhibitory concentration (IC50) lay in the range of 1 to 200 µM.
Regarding `Cc1nc2c(=O)n(CC3(O)CCN(C(=O)CC(C4CC4)C4CC4)CC3)cnc2n1-c1ccccc1` [Example 190, 1-((1-(3,3-Dicyclopropylpropanoyl)-4-hydroxypiperidin-4-yl)methyl)-8-methyl-9-phenyl-1H-purin-6(9H)-one], the IC50 lay in the range of 1 to 200 µM.
Still for that read-out and setting: then `Cn1nc2c(=O)n(CC3(O)CCN(C(=O)C[C@H](c4ccccc4)C(F)(F)F)CC3)cnc2c1C1=CCCCC1` [Example 134, (R)-3-(Cyclohex-1-en-1-yl)-6-((4-hydroxy-1-(4,4,4-trifluoro-3-phenylbutanoyl)piperidin-4-yl)methyl)-2-methyl-2H-pyrazolo[4,3-d]pyrimidin-7(6H)-one], with less than 0.25 µM.
`Cc1nc2c(=O)n(CC3(O)CCN(C(=O)c4cnc(C5CC5)o4)CC3)cnc2n1-c1ccccc1` [Example 195, 1-((1-(2-Cyclopropyloxazole-5-carbonyl)-4-hydroxypiperidin-4-yl)methyl)-8-methyl-9-phenyl-1H-purin-6(9H)-one]: the half-inhibitory concentration (IC50) lay within 1 to 200 µM.
As for `Cn1nc2c(=O)n(CC3(O)CCN(C(=O)C[C@H](c4ccccc4)C(F)F)CC3)cnc2c1-c1ccc(CN)cc1` [Example 80, (R)-3-(4-(Aminomethyl)phenyl)-6-((1-(4,4-difluoro-3-phenylbutanoyl)-4-hydroxypiperidin-4-yl)methyl)-2-methyl-2H-pyrazolo[4,3-d]pyrimidin-7(6H)-one], the IC50 is less than 0.25 µM.
As to `Cn1nc2c(=O)n(CC3(O)CCN(C(=O)CCc4ccccc4)CC3)cnc2c1C(F)(F)F` [Example 39, 6-((4-Hydroxy-1-(3-phenylpropanoyl)piperidin-4-yl)methyl)-2-methyl-3-(trifluoromethyl)-2H-pyrazolo[4,3-d]pyrimidin-7(6H)-one], the IC50 fell in the range of 1 to 200 µM.
`C[C@H](CC(=O)N1CCC(O)(Cn2cnc(N3CCN(C)CC3)cc2=O)CC1)c1ccccc1` [Example 8, (R)-3-((4-Hydroxy-1-(3-phenylbutanoyl)piperidin-4-yl)methyl)-6-(4-methylpiperazin-1-yl)pyrimidin-4(3H)-one]: the IC50 fell in the range of 1 to 200 µM.
In the case of `C[C@H](CC(=O)N1CCC(O)(Cn2cnc3c(ncn3C)c2=O)CC1)c1ccccc1` [Example 15, (R)-1-((4-Hydroxy-1-(3-phenylbutanoyl)piperidin-4-yl)methyl)-9-methyl-1H-purin-6(9H)-one], the IC50 fell in the range of 1 to 200 µM.
For `CC1(C(=O)N2CCC(O)(Cn3cnc4c(cc(Cl)n4-c4cccc(-n5cc(C(F)(F)F)cn5)c4)c3=O)CC2)CC1` [Example 225, 6-Chloro-3-((4-hydroxy-1-(1-methylcyclopropanecarbonyl)piperidin-4-yl)methyl)-7-(3-(4-(trifluoromethyl)-1H-pyrazol-1-yl)phenyl)-3H-pyrrolo[2,3-d]pyrimidin-4(7H)-one], the IC50 was 1 to 200 µM.
Regarding `CC1(C(=O)N2CCC(O)(Cn3cnc4c(cc(Cl)n4-c4ccc(F)cc4)c3=O)CC2)CC1` [Example 204, 6-Chloro-7-(4-fluorophenyl)-3-((4-hydroxy-1-(1-methylcyclopropanecarbonyl)piperidin-4-yl)methyl)-3H-pyrrolo[2,3-d]pyrimidin-4(7H)-one], the IC50 is less than 0.25 µM.
On to `O=C(c1cnc(C2CC2)o1)N1CCC(O)(Cn2cnc3c(cc(Cl)n3-c3ccc(F)cc3)c2=O)CC1` [Example 205, 6-Chloro-3-((1-(2-cyclopropyloxazole-5-carbonyl)-4-hydroxypiperidin-4-yl)methyl)-7-(4-fluorophenyl)-3H-pyrrolo[2,3-d]pyrimidin-4(7H)-one], for which the half-inhibitory concentration (IC50) was less than 0.25 µM.
As for `C[C@H](CC(=O)N1CCC(O)(Cc2cnc3c(-c4ccccc4)cccn3c2=O)CC1)c1ccccc1` [Example 19, (R)-3-((4-Hydroxy-1-(3-phenylbutanoyl)piperidin-4-yl)methyl)-9-phenyl-4H-pyrido[1,2-a]pyrimidin-4-one], the concentration for half-maximal inhibition (IC50) lay in the range of 1 to 200 µM.

The same experiment, now with this note: USP7 IC50, Table 4, biochemical assay; average of at least duplicate experiments.
For `C[C@H](CC(=O)N1CCC(O)(Cn2cnc(N3C[C@H]4C[C@@H]3CN(C)C4)cc2=O)CC1)c1ccccc1` (single isomer, unassigned) [Example 181], the IC50 lay in the range of 0.25 to 0.999 µM.
As to `C[C@H](CC(=O)N1CCC(O)(Cn2cnc(-c3cnn(C)c3)cc2=O)CC1)c1ccccc1` [Example 40, (R)-3-((4-Hydroxy-1-(3-phenylbutanoyl)piperidin-4-yl)methyl)-6-(1-methyl-1H-pyrazol-4-yl)pyrimidin-4(3H)-one], the half-maximal inhibitory concentration (IC50) is 0.25 to 0.999 µM.
As for `C[C@H](CC(=O)N1CCC(O)(Cn2cnc(N3CC[C@H](N(C)C)C3)cc2=O)CC1)c1ccccc1` [Example 62, 6-((S)-3-(Dimethylamino)pyrrolidin-1-yl)-3-((4-hydroxy-1-((R)-3-phenylbutanoyl)piperidin-4-yl)methyl)pyrimidin-4(3H)-one], the IC50 lay within 0.25 to 0.999 µM.

The values are drawn from patent US10766903B2 (ALMAC DISCOVERY LIMITED, priority 2016, dated 2020).
